Source: US6664267B1, “Crystalline fluoroquinolone arginine salt form” (Wockhardt Limited, priority 2002, dated 2003)
Several values for one entry are separate records, joined by “and”; a condition that tells them apart may be missing. Equal values may be shown once. Where a name gives a salt, the structure may show the parent alone. Read-outs that look alike come from different tables or passages of the source.

Legend:
[1] = hygroscopicity / moisture uptake on exposure to humidity, determined gravimetrically; assay type: physicochemical
dissolution rate = assay type: physicochemical
[2] = antibacterial minimum inhibitory concentration (MIC); assay type: cell-based
respiratory pathogens = assay: treating respiratory pathogens
resistant mutants = assay: treating resistant mutants
[3] = test system: slow-growing Staphylococci; assay: cidal action against slow-growing Staphylococci; assay type: cell-based
Staphylococci = assay: eradication of Staphylococci from vital organs and thigh muscle; assay type: in vivo; settings: compared with the standard drugs
[4] = test system: high density bacterial inoculum; assay: cidal effect with high density bacterial inoculum; assay type: cell-based; settings: high density bacterial inoculum (10^8 cfu/ml)
[5] = bulk density determination; assay type: physicochemical
From the text: Untapped density=25 g/untapped volume.
Tapped density=25 g/Tapped volume.

[6] = mean mass diameter determination by laser diffraction; assay type: physicochemical; settings: for Mean mass diameter: laser diffraction, four different samples made by the procedure of example 1, Hydrate
From the text: For mean mass diameter Master Sizer of Malvern Instrument LTD U.K. was used under the conditions listed below:
Analysis model: Polydisperse
Obstruction value: 20-23%

rats = settings: rat, in vivo, iv
rodents = settings: in vivo
[7] = in vivo
[8] = test system: resistant Staphylococcus aureus
[9] = exposure at a relative humidity of 41%

Q: Which antimicrobial activity (antimicrobial activity) does the source give for `CC1CCc2c(N3CCC(O)CC3)c(F)cc3c(=O)c(C(=O)O)cn1c23.N=C(N)NCCC[C@H](N)C(=O)O` (racemic) [Example 8, RS-(±)-9-Fluoro-6,7-dihydro-8-(4-hydroxypiperidin-1-yl)-5-methyl-1-oxo-1H,5H-benzo[i,j]quinolizine-2-carboxylic Acid L-Arginine Salt] here?
A: have antimicrobial activity

Q: For `CC1CCc2c(N3CCC(O)CC3)c(F)cc3c(=O)c(C(=O)O)cn1c23.N=C(N)NCCC[C@@H](N)C(=O)O` (racemic) [Example 9, RS-(±)-9-Fluoro-6,7-dihydro-8-(4-hydroxypiperidin-1-yl)-5-methyl-1-oxo-1H,5H-benzo[i,j]quinolizine-2-carboxylic Acid D-Arginine Salt], which antimicrobial activity (antimicrobial activity) is on record?
A: have antimicrobial activity

Q: For `CC1CCc2c(N3CCC(O)CC3)c(F)cc3c(=O)c(C(=O)O)cn1c23.N=C(N)NCCCC(N)C(=O)O` (racemic) [R, S-9-fluoro-6,7-dihydro-8-(4-hydroxypiperidin-1-yl)-5-methyl-1-oxo-1H,5H-benzo[i,j]-quinolizine-2-carboxylic acid DL-arginine salt], which antimicrobial activity (antimicrobial activity) is on record?
A: have antimicrobial activity

Q: With `C[C@@H]1CCc2c(N3CCC(O)CC3)c(F)cc3c(=O)c(C(=O)O)cn1c23.N=C(N)NCCCC(N)C(=O)O` (stereo in doubt) [R-(+)-9-fluoro-6,7-dihydro-8-(4-hydroxypiperidin-1-yl)-5-methyl-1-oxo-1H,5H-benzo[i,j]-quinolizine-2-carboxylic acid DL-arginine salt] as the compound, how does the antimicrobial activity (antimicrobial activity) read?
A: have antimicrobial activity

Q: With `C[C@H]1CCc2c(N3CCC(O)CC3)c(F)cc3c(=O)c(C(=O)O)cn1c23.N=C(N)NCCCC(N)C(=O)O` (stereo in doubt) [S-(−)-9-fluoro-6,7-dihydro-8-(4-hydroxypiperidin-1-yl)-5-methyl-1-oxo-1H,5H-benzo[i,j]-quinolizine-2-carboxylic acid DL-arginine salt] as the compound, how does the antimicrobial activity (antimicrobial activity) read?
A: have antimicrobial activity

Q: For `C[C@H]1CCc2c(N3CCC(O)CC3)c(F)cc3c(=O)c(C(=O)O)cn1c23` [Example 1, S-(−)-9-Fluoro-6,7-dihydro-8-(4-hydroxypiperidin-1-yl)-5-methyl-1-oxo-1H,5H-benzo[i,j]quinolizine-2-carboxylic Acid L-Arginine Salt Hydrate], which hygroscopicity [1] is on record?
A: to a certain degree hygroscopic

Q: What about the “moisture absorption compared with the sodium salt” value ([1]; at specified humidity levels) of the same compound?
A: less prone than the sodium salt to absorb moisture

Q: And the dissolution rate (dissolution rate)?
A: acceptable dissolution rate

Q: What about the “antibacterial minimum inhibitory concentration (MIC) values compared with the free acid” value [2] of the same compound?
A: same antibacterial minimum inhibitory concentration (MIC) values as the free active ingredient

Q: What about the “retention of potency at acidic pH” value ([2]; acidic pH of 5.5) of the same compound?
A: unusual ability to retain potency

Q: And the “effectiveness in treating respiratory pathogens” value (respiratory pathogens)?
A: effective

Q: What about the “effectiveness in treating resistant mutants” value (resistant mutants) of the same compound?
A: effective

Q: And the cidal action [3]?
A: superior cidal action

Q: And the eradication efficacy (Staphylococci)?
A: scores over the standard drugs

Q: What about the cidal effect [4] of the same compound?
A: unusual superior cidal effect

Q: What about the “bulk density (tapped)” value ([5]; 25 gm/tapped volume, tapped 150 times) of the same compound?
A: 0.64 g/mL

Q: And the “bulk density (untapped)” value ([5]; 25 gm/untapped volume)?
A: 0.57 g/mL

Q: What about the Mean mass diameter [6] of the same compound?
A: 32.92 μm and 24.22 μm and 34.51 μm and 39.07 μm

Q: What about the Mean mass diameter ([6]; listed as S-(−)-9-fluoro-6,7-dihydro-8-(4-hydroxypiperidin-1-yl)-5-methyl-1-oxo-1H,5H-benz) of the same compound?
A: less than or equal to 40 μm

Q: What about the “Mean mass diameter, mean value” ([6]; mean of four samples of Table 1) of the same compound?
A: 32.68 μm

Q: What about the “propensity to cause phlebitis” value (rats) of the same compound?
A: lower propensity to cause phlebitis than the sodium and potassium salts

Q: And the toxicity (rodents)?
A: less toxic in rodents than the alkali salt forms

Q: What about the bioavailability [7] of the same compound?
A: good bioavailability

Q: And the “activity against resistant Staphylococcus aureus” value [8]?
A: potent activity

Q: Which antimicrobial activity (antimicrobial activity) does the source give for `C[C@H]1CCc2c(N3CCC(O)CC3)c(F)cc3c(=O)c(C(=O)O)cn1c23.N=C(N)NCCC[C@@H](N)C(=O)O` [Example 5, S-(−)-9-Fluoro-6,7-dihydro-8-(4-hydroxypiperidin-1-yl)-5-methyl-1-oxo-1H,5H-benzo[i,j]quinolizine-2-carboxylic Acid D-Arginine Salt] here?
A: have antimicrobial activity

Q: With `C[C@@H]1CCc2c(N3CCC(O)CC3)c(F)cc3c(=O)c(C(=O)O)cn1c23.N=C(N)NCCC[C@H](N)C(=O)O` [Example 6, R-(+)-9-Fluoro-6,7-dihydro-8-(4-hydroxypiperidin-1-yl)-5-methyl-1-oxo-1H,5H-benzo[i,j]quinolizine-2-carboxylic Acid L-Arginine Salt] as the compound, how does the antimicrobial activity (antimicrobial activity) read?
A: have antimicrobial activity

Q: Which antimicrobial activity (antimicrobial activity) does the source give for `C[C@@H]1CCc2c(N3CCC(O)CC3)c(F)cc3c(=O)c(C(=O)O)cn1c23.N=C(N)NCCC[C@@H](N)C(=O)O` [Example 7, R-(+)-9-Fluoro-6,7-dihydro-8-(4-hydroxypiperidin-1-yl)-5-methyl-1-oxo-1H,5H-benzo[i,j]quinolizine-2-carboxylic Acid D-Arginine Salt] here?
A: have antimicrobial activity

Q: Which “antimicrobial activity compared with the R-(+)- and RS- acids” value (antimicrobial activity) does the source give for “S-(−)-9-fluoro-6,7-dihydro-8-(4-hydroxypiperidin-1-yl)-5-methyl-1-oxo-1H,5H-benzo[i,j]quinolizine-2-carboxylic acid [reference compound]” here?
A: more potent antimicrobial activity

Q: Which hygroscopicity [1, 9] does the source give for “S-(−)-9-fluoro-6,7-dihydro-8-(4-hydroxypiperidin-1-yl)-5-methyl-1-oxo-1H,5H-benzo[i,j]quinolizine-2-carboxylic acid, L-arginine salt 0.25 hydrate [reference compound]” here?
A: highly hygroscopic and turn into syrups

Q: For “S-(−)-9-fluoro-6,7-dihydro-8-(4-hydroxypiperin-1-yl)-5-methyl-1-oxo-1H,5H-benzo[i,j]quinolizine-2-carboxylic acid, L-arginine salt, 0.75 hydrate [reference compound]”, which hygroscopicity [1, 9] is on record?
A: highly hygroscopic and turn into syrups
